Where two headings read alike, the source gives them in different places.
System: firefly luciferase activity
Assay: Dual-Glo firefly/renilla luciferase reporter assay in cells
Assay type: cell-based
[1] = 24 hrs compound treatment, starting from 3 uM, 1:3 dilution, 10 points, read-out: Firefly Luciferase IC50

SMILES | IC50 (24 h, read-out: Firefly Luciferase IC50 (μM)) [µM] | IC50 [1] [µM]
OCCn1nnc(-c2c(F)cccc2Nc2ccc(C(F)(F)F)cc2)n1 [Compound 187, 2-(5-(2-fluoro-6-((4-(trifluoromethyl)phenyl)amino)phenyl)-2H-tetrazol-2-yl)ethan-1-ol] | < 0.1 | –
O=C(Cn1nnc(-c2ccccc2Nc2ccc(C(F)(F)F)cc2)n1)c1ccccc1 [Compound 130, 1-phenyl-2-[5-[2-[4-(trifluoromethyl)anilino]phenyl]tetrazol-2-yl]ethanone] | – | 1 to 5
O=C1NCC(Cn2nnc(-c3ccccc3Nc3ccc(C(F)(F)F)cc3)n2)O1 (stereo not shown) [Compound 136, 5-((5-(2-((4-(trifluoromethyl)phenyl)amino)phenyl)-2H-tetrazol-2-yl)methyl)oxazolidin-2-one] | – | 0.1 to 1
C[C@H](O)[C@H](C)n1nnc(-c2ccccc2Nc2ccc(C(F)(F)F)cc2)n1 [Compound 192, (2S,3S)-3-(5-(2-((4-(trifluoromethyl)phenyl)amino)phenyl)-2H-tetrazol-2-yl)butan-2-ol] | – | < 0.1

Source: US11186554B2, “Non-fused tricyclic compounds” (VIVACE THERAPEUTICS, INC., priority 2017, dated 2021)
